pEC50: −log10 of the molar value.

Test system in the first series: not given
Assay: not given
On the set-up: method as in earlier work. Conditions: humans; ref 47 (Feng et al. 2012); cited from earlier work.
Consider `Oc1ccc(CC2NCCc3cc(O)c(O)cc32)cc1` (stereo not drawn) [Higenamine, higenamine], for which the maximal plasma concentration is given as 8.4 nM.

The target of a further series is T1, human adrenergic receptor (ADR) β1 (Homo sapiens, UniProt P08588).
T1 construct: host or cells: rat chem-1 cells
T1 sequence (P08588 whole entry): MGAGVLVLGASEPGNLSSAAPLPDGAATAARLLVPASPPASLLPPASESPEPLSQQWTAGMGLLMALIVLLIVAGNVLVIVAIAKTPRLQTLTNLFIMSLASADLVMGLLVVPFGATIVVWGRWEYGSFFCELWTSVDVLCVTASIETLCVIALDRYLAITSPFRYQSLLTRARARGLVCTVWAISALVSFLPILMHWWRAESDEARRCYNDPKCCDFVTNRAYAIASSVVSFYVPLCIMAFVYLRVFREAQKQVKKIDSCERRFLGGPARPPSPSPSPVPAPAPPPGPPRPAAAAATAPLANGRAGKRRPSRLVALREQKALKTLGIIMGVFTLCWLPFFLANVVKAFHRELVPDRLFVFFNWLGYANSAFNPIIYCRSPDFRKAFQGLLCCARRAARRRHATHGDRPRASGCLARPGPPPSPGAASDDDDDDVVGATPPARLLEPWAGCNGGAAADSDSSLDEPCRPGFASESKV
In words: ADRβ1 activation, Ca2+ influx (Fluo-8) in overexpressing chem-1 cells. It counts as cell-based.
Settings: not given
An excerpt:
Cells overexpressing human ADRs α1A, α1B, α1D, α2A, α2B, β1 and β2 (Eurofins Discovery Services, St. Charles, MO, USA, product numbers: HTS087RTA, HTS158RTA, HTS216RTA, HTS096RTA, HTS157LRTA, HTS104RTA and HTS073RTA, respectively) were used to study the potency (EC50) and efficacy (Emax) of the selected compounds for these receptors by quantifying Ca^2+ influx upon receptor activation. ADRα1A, α1B, α1D, α2A, β1 and β2 were overexpressed in rat chem-1 cells. ADRα2B was overexpressed in HEK293 cells. The cells were seeded (10,000–50,000 cells/well) in a black 96-well plate (VWR International, Leuven, Belgium) and incubated at 37 °C and 5% CO2 for 24 h. After 24 h, the cells were washed with Hank’s balanced salt solution (HBSS) (Gibco, Paisley, UK) containing 0.35 g/L sodium bicarbonate and incubated with 5 µg/mL Fluo-8 AM in HBSS (pH 7.4) supplemented with 2.5 mM probenecid for 1 h. […] Peak tops of the obtained fluorescence response–time curves were corrected for baseline fluorescence and used to construct concentration–response relationships.
Concentration–response relationships for TAAR1 activation are presented as percentages of the maximal intracellular cAMP level induced by full the TAAR1 agonist phenethylamine and corrected for baseline cAMP accumulation. […] Experiments were run in duplicate in 7–9 independent experiments for ADR and were run in 3–5 independent experiments for TAAR1.
Turning to `CC(C)CC(C)N` (stereo not drawn), the pEC50 (commonly −log10 of the EC50, conventionally taken in molar units) is below 3.52.

In turn, `CC(C)CCCC(C)N` (stereo not drawn) had a pEC50 below 3.52.

In turn, `CCC(C)CC(C)N` (stereo not drawn) [1,3-Dimethylamylamine, 1,3-dimethylamylamine] had a pEC50 below 3.52.

In turn, `CN(C)CCO` [Dimethylaminoethanol, dimethylaminoethanol] showed a pEC50 below 3.52.

`CN(C)CCc1ccccc1` [Dimethylphenethylamine, N,N-dimethylphenethylamine] had a pEC50 below 3.52.

In turn, `CNCC(O)c1ccccc1` (stereo not drawn) [Halostachine, halostachine] had a pEC50 below 3.52.

`Oc1ccc(CC2NCCc3cc(O)c(O)cc32)cc1` (stereo not drawn) [Higenamine, higenamine] showed a pEC50 of 7.47.

As to `CN(C)CCc1ccc(O)cc1` [Hordenine, hordenine], the pEC50 was below 3.52.

Consider `CNC(C)C(O)c1ccc(O)cc1` (stereo not drawn) [Methylsynephrine], for which the pEC50 was 4.60.

As for `NCCc1ccccc1` [Phenethylamine, phenethylamine], the pEC50 was below 3.52.

`CC(CN)c1ccccc1` (stereo not drawn) [β-Methylphenethyl-amine, beta-methylphenethylamine] gave a negative logarithm of the EC50 (pEC50) below 3.52.

The series is the same for the next values; noted with them: % of maximal signal obtained by adrenaline; average (95% CI).
Consider `CC(C)CC(C)N` (stereo not drawn), for which the “ADRβ1 Emax” value is “-”.

As for `CC(C)CCCC(C)N` (stereo not drawn), the “ADRβ1 Emax” value is reported as “-”.

Consider `CCC(C)CC(C)N` (stereo not drawn) [1,3-Dimethylamylamine, 1,3-dimethylamylamine], for which the “ADRβ1 Emax” value was “-”.

For the compound `CN(C)CCO` [Dimethylaminoethanol, dimethylaminoethanol], the “ADRβ1 Emax” value is given as “-”.

Consider `CN(C)CCc1ccccc1` [Dimethylphenethylamine, N,N-dimethylphenethylamine], for which the “ADRβ1 Emax” value is “-”.

For the compound `CNCC(O)c1ccccc1` (stereo not drawn) [Halostachine, halostachine], the “ADRβ1 Emax” value was “-”.

On to `CN(C)CCc1ccc(O)cc1` [Hordenine, hordenine], for which the “ADRβ1 Emax” value is “-”.

Turning to `NCCc1ccccc1` [Phenethylamine, phenethylamine], the “ADRβ1 Emax” value was “-”.

Turning to `CC(CN)c1ccccc1` (stereo not drawn) [β-Methylphenethyl-amine, beta-methylphenethylamine], the “ADRβ1 Emax” value is given as “-”.

The same series, now with this note: Chem-1, read-out: ADRβ1 Emax.
Take `Oc1ccc(CC2NCCc3cc(O)c(O)cc32)cc1` (stereo not drawn) [Higenamine, higenamine]: the maximal response (Emax) (in general, the maximal effect, on the per cent scale that the assay sets) is 105%.

Take `CNC(C)C(O)c1ccc(O)cc1` (stereo not drawn) [Methylsynephrine]: the Emax was 75%.

The series is the same for the next values; noted with them: relative to the endogenous agonist adrenaline.
Consider `Oc1ccc(CC2NCCc3cc(O)c(O)cc32)cc1` (stereo not drawn) [Higenamine, higenamine], for which the “potency at ADRβ1, times less potent than adrenaline” value is recorded as around 3 times.

As to `CNC(C)C(O)c1ccc(O)cc1` (stereo not drawn) [Methylsynephrine], the “potency at ADRβ1, times less potent than adrenaline” value was “approximately 2500 times”.

A further series has as its target T2, human adrenergic receptor (ADR) α1D (Homo sapiens, UniProt P25100).
T2 construct: host or cells: rat chem-1 cells
T2 sequence (P25100 1-572): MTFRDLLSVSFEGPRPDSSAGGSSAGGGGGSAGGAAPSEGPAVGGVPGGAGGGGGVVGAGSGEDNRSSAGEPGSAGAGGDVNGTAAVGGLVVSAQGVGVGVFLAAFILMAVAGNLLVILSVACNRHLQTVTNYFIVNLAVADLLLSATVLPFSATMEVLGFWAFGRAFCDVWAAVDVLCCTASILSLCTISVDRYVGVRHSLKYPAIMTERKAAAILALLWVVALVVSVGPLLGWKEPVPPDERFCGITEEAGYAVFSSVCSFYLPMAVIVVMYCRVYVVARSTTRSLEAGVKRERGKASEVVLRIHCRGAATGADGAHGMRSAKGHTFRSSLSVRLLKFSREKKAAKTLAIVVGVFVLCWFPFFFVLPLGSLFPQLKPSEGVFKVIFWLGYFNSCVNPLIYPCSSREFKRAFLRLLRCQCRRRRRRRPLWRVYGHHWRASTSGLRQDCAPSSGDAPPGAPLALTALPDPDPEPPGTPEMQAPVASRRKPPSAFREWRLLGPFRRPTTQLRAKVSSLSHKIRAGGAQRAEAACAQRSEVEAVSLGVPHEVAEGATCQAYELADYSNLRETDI
Kind of series: ADRα1D activation, Ca2+ influx (Fluo-8) in overexpressing chem-1 cells. Conditions: % of maximal signal obtained by adrenaline; average (95% CI). Type of series: cell-based.
For the compound `CC(C)CC(C)N` (stereo not drawn), the “ADRα1D Emax” value is reported as “-”.

Consider `CC(C)CCCC(C)N` (stereo not drawn), for which the “ADRα1D Emax” value is recorded as “-”.

As for `CCC(C)CC(C)N` (stereo not drawn) [1,3-Dimethylamylamine, 1,3-dimethylamylamine], the “ADRα1D Emax” value is “-”.

With `CN(C)CCO` [Dimethylaminoethanol, dimethylaminoethanol], the “ADRα1D Emax” value is listed as “-”.

For the compound `Oc1ccc(CC2NCCc3cc(O)c(O)cc32)cc1` (stereo not drawn) [Higenamine, higenamine], the “ADRα1D Emax” value was “-”.

For the compound `CC(C)NCC(O)c1ccc(O)cc1` (stereo not drawn) [Isopropyloctopamine, isopropyloctopamine], the “ADRα1D Emax” value is “-”.

In the case of `CNC(C)C(O)c1ccc(O)cc1` (stereo not drawn) [Methylsynephrine], the “ADRα1D Emax” value is reported as “-”.

As to `NCCc1ccccc1` [Phenethylamine, phenethylamine], the “ADRα1D Emax” value is reported as “-”.

Regarding `NCCc1ccc(O)cc1` [Tyramine, tyramine], the “ADRα1D Emax” value is on record as “-”.

As for `CC(CN)c1ccccc1` (stereo not drawn) [β-Methylphenethyl-amine, beta-methylphenethylamine], the “ADRα1D Emax” value is given as “-”.

The series is the same for the next values; noted with them: Ca2+ response, chem-1 cells; average (95% confidence interval), 7–9 experiments.
In the case of `CC(C)CC(C)N` (stereo not drawn), the pEC50 was below 3.52.

`CC(C)CCCC(C)N` (stereo not drawn) had a pEC50 below 3.52.

The compound `CCC(C)CC(C)N` (stereo not drawn) [1,3-Dimethylamylamine, 1,3-dimethylamylamine] gave a pEC50 below 3.52.

`CN(C)CCO` [Dimethylaminoethanol, dimethylaminoethanol] gave a pEC50 below 3.52.

In the case of `CN(C)CCc1ccccc1` [Dimethylphenethylamine, N,N-dimethylphenethylamine], the pEC50 is 5.08.

`CNCC(O)c1ccccc1` (stereo not drawn) [Halostachine, halostachine] showed a pEC50 of 5.68.

`Oc1ccc(CC2NCCc3cc(O)c(O)cc32)cc1` (stereo not drawn) [Higenamine, higenamine]: the pEC50 is below 3.52.

Compound `CN(C)CCc1ccc(O)cc1` [Hordenine, hordenine] had a pEC50 of 4.47.

`CC(C)NCC(O)c1ccc(O)cc1` (stereo not drawn) [Isopropyloctopamine, isopropyloctopamine] showed a pEC50 below 3.52.

`CNC(C)C(O)c1ccc(O)cc1` (stereo not drawn) [Methylsynephrine] showed a pEC50 below 3.52.

In turn, `NCCc1ccccc1` [Phenethylamine, phenethylamine] showed a pEC50 below 3.52.

`NCCc1ccc(O)cc1` [Tyramine, tyramine] gave a pEC50 below 3.52.

Regarding `NCC(O)c1ccc(O)cc1` (stereo not drawn) [p-Octopamine, p-octopamine], the pEC50 was 5.92.

The compound `CC(CN)c1ccccc1` (stereo not drawn) [β-Methylphenethyl-amine, beta-methylphenethylamine] had a pEC50 below 3.52.

The same series, now with this note: Chem-1.
With `CN(C)CCc1ccccc1` [Dimethylphenethylamine, N,N-dimethylphenethylamine], the Emax is 7.9%.

For the compound `CNCC(O)c1ccccc1` (stereo not drawn) [Halostachine, halostachine], the Emax turned out to be 82%.

In turn, `CN(C)CCc1ccc(O)cc1` [Hordenine, hordenine] yielded an Emax of 23%.

As to `NCC(O)c1ccc(O)cc1` (stereo not drawn) [p-Octopamine, p-octopamine], the Emax came to 100%.

As to `CNCC(O)c1ccc(O)cc1` (stereo not drawn) [p-Synephrine, p-synephrine], the Emax stood at 80%.

Test system in another series: not given
Assay: not given
Conditions: humans, 5.5 mg oral dose, n = 3; cited from earlier work. Also on record: method as in PMID 33227193, PMID 31984737.
On to `CN(C)CCc1ccc(O)cc1` [Hordenine, hordenine], for which the Human plasma level is on record as 15 nM.

The same series, now with this note: humans, 100 mg oral dose, n = 3; cited from earlier work.
For `CN(C)CCc1ccc(O)cc1` [Hordenine, hordenine], the Human plasma level is reported as 2.7 nM.

For a further series, the target named is T3, human adrenergic receptor (ADR) α2A (Homo sapiens, UniProt P08913).
T3 construct: host or cells: rat chem-1 cells
T3 sequence (P08913 1-465): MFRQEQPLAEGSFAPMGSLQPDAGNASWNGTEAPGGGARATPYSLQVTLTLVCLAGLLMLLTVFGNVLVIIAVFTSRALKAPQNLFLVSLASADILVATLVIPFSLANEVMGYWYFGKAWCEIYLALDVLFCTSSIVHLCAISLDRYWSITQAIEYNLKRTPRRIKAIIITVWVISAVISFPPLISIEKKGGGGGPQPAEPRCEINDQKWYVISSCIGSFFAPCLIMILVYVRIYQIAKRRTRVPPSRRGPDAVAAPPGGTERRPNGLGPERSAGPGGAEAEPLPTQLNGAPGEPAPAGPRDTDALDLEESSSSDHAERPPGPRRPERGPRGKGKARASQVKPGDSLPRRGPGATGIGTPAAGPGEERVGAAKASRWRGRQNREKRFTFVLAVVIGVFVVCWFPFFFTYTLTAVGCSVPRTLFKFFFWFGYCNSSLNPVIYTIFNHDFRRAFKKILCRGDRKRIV
Kind of series: ADRα2A activation, Ca2+ influx (Fluo-8) in overexpressing chem-1 cells. Conditions: % of maximal signal obtained by adrenaline; average (95% CI). Type of series: cell-based.
Regarding `CN(C)CCc1ccc(O)cc1` [Hordenine, hordenine], the “ADRα2A Emax” value turned out to be 12%.

Still in this series, the particulars now being: Ca2+ response, chem-1 cells; average (95% confidence interval), 7–9 experiments.
Turning to `CC(C)CC(C)N` (stereo not drawn), the pEC50 was below 3.52.

For the compound `CC(C)CCCC(C)N` (stereo not drawn), the pEC50 was below 3.52.

Compound `CCC(C)CC(C)N` (stereo not drawn) [1,3-Dimethylamylamine, 1,3-dimethylamylamine] gave a pEC50 below 3.52.

Compound `CN(C)CCO` [Dimethylaminoethanol, dimethylaminoethanol] had a pEC50 below 3.52.

`CN(C)CCc1ccccc1` [Dimethylphenethylamine, N,N-dimethylphenethylamine] showed a pEC50 below 3.52.

Turning to `CNCC(O)c1ccccc1` (stereo not drawn) [Halostachine, halostachine], the pEC50 was below 3.52.

Regarding `Oc1ccc(CC2NCCc3cc(O)c(O)cc32)cc1` (stereo not drawn) [Higenamine, higenamine], the pEC50 was below 3.52.

In turn, `CN(C)CCc1ccc(O)cc1` [Hordenine, hordenine] had a pEC50 of 3.16.

For the compound `CC(C)NCC(O)c1ccc(O)cc1` (stereo not drawn) [Isopropyloctopamine, isopropyloctopamine], the negative-log EC50 (pEC50) is below 3.52.

In turn, `CNC(C)C(O)c1ccc(O)cc1` (stereo not drawn) [Methylsynephrine] showed a pEC50 below 3.52.

`NCCc1ccccc1` [Phenethylamine, phenethylamine] gave a pEC50 below 3.52.

`NCCc1ccc(O)cc1` [Tyramine, tyramine] gave a pEC50 below 3.52.

`NCC(O)c1ccc(O)cc1` (stereo not drawn) [p-Octopamine, p-octopamine]: the pEC50 was below 3.52.

For the compound `CNCC(O)c1ccc(O)cc1` (stereo not drawn) [p-Synephrine, p-synephrine], the pEC50 is 4.00.

In the case of `CC(CN)c1ccccc1` (stereo not drawn) [β-Methylphenethyl-amine, beta-methylphenethylamine], the pEC50 is below 3.52.

Still in this series, the particulars now being: Chem-1, % of maximal signal obtained by adrenaline; average (95% CI).
As to `CNCC(O)c1ccc(O)cc1` (stereo not drawn) [p-Synephrine, p-synephrine], the Emax was 89%.

Staying with this series, now noted: relative to the endogenous agonist adrenaline.
As to `CN(C)CCc1ccc(O)cc1` [Hordenine, hordenine], the “potency at ADRα2A, times lower compared to adrenaline” value is recorded as above 12000 times.

Consider `CNCC(O)c1ccc(O)cc1` (stereo not drawn) [p-Synephrine, p-synephrine], for which the “potency at ADRα2A, times lower compared to adrenaline” value is reported as above 12000 times.

Source of the values: paper PMC11174489, “In Vitro Activation of Human Adrenergic Receptors and Trace Amine-Associated Receptor 1 by Phenethylamine Analogues Present in Food Supplements” (Nutrients, 2024).
